Measured values as given in patent publication US6950754B2, “Apparatus and method for automated protein design” (The California Institute of Technology, priority 1997, dated 2005).
No end group written: not given here.

Assays:
[1] = Size exclusion chromatography, oligomerization state (coiled coil peptides); type: physicochemical; settings: pH 7.0, 0° C.
Method: Size exclusion chromatography: Size exclusion chromatography was performed with a Synchropak GPC 100 column (25 cm by 4.6 mm) at pH 7.0 in 50 mM phosphate and 150 mM NaCl at 0° C. […] 10 μl injections of 1 mM peptide solution were chromatographed at 0.20 ml/min and monitored at 275 nm. Peptide concentrations were approximately 60 μM as estimated from peak heights. Samples were run in triplicate.
Size exclusion chromatography was performed with a PolyLC hydroxyethyl A column (20 cm×9 mm) at pH 7.0 in 50 mM phosphate and 150 mM NaCl at 0° C. […] 5 μl injections of ˜1 mM peptide solution were chromatographed at 0.50 ml/min and monitored at 214 nm. Samples were run in triplicate.

[2] = Thermal melts monitored by circular dichroism at 222 nm (coiled coil peptides); type: physicochemical; settings: surface designs on GCN4-p1, pH 7.0, 40 μM
Method: A 1 mm pathlength cell was used and the temperature was controlled by a thermoelectric unit. Thermal melts were performed in the same buffer using two degree temperature increments with an averaging time of 10 s and an equilibration time of 90 s. […] Peptide concentrations were determined from the tyrosine absorbance at 275 nm (Huyghues-Despointes, et al., supra).

[3] = Circular dichroism spectra, ellipticity at 222 nm and helical content (coiled coil peptides); type: physicochemical; settings: 1° C., 40 μM
Method: Circular dichroism CD spectra were measured on an Aviv 62DS spectrometer at pH 7.0 in 50 mM phosphate, 150 mM NaCl and 40 μM peptide. A 1 mm pathlength cell was used and the temperature was controlled by a thermoelectric unit.
Circular dichroism spectroscopy (CD) was used to assay the secondary structure and thermal stability of the designed peptides.
The secondary structures and thermal stabilities of the peptides were assessed by circular dichroism (CD) spectroscopy.

[4] = type: physicochemical; settings: pH 5.5

Substance	N (oligomerization state) [1]	Tm [2] [°C]	[θ]222 [3] [deg cm^2/dmol]	limited solubility [4] [µM]
Ac-RMEKLEQKVKELLRKNERLEEEVERLKQLVGER-NH2 [6B]	2	72	–	–
Ac-RMAALEAKVAALLAKNAALEAEVAALKALVGER-NH2 [6F]	–	73	–	–
MTWKYIINGKTLKGETTTEIVDAATFEKVWKQYLNDNGIDGEFTYDDATKTLTITE [α70]	–	–	–	100

Second part, led by results:

N (oligomerization state) [1]	Tm [2] [°C]	[θ]222 [3] [deg cm^2/dmol]	Substance	limited solubility [4] [µM]
2	71	–	Ac-RMRELEEKVRRLLRKNEDLEREVKRLKELVGER-NH2 [6D]	–
2	15	−12000	Ac-RMNTLERKVAKLLSKNANLEHEVNTLKQLVGER-NH2 [6E]	–
2	71	–	Ac-RMEKLEDKVRELLRKNRRLEEEVRRLKELVGER-NH2 [6A]	–
2	69	–	Ac-RMARLEAKVAALLAKNRRLEREVARLKALVGER-NH2 [6C]	–
